In test [1] the test system is PATC53 cells. The test can be described thus: PATC53 Long Term Phenotypic Assay (14 days, crystal violet viability). The following applies: 336 h. Format: cell-based. On the procedure:
PATC53 cells were derived from the PATC53 PDX model and kindly provided by Jason Fleming (MDACC). The cells were routinely maintained in DMEM/F12 Medium (Corning, Catalog #10-090-CV) supplemented with 10% fetal bovine serum (Sigma, Catalog #F2442), 100 units/mL penicillin and 100 μg/mL streptomycin (Gibco, Catalog #15140-122) in a humidified incubator (37° C., 5% CO2). Prior to the assay, cells were seeded onto a 12-well, TC treated plate (Corning, catalog #353043) at a density of 250 cells per well in a volume of 1 mL. The plate was incubated for 24 hours at 37° C. and 5% CO2. Stock solutions of the test compounds were prepared in 100% DMSO (Sigma, Catalog #D2650) and serially diluted 1:3 using 100% DMSO. Compounds were additionally diluted 1:100 in culture medium, and 110 μL/well was transferred to the tissue culture plate. Following the compound addition, the plate was incubated at 37° C. and 5% CO2 for 14 days. Viability was then assessed by crystal violet staining (Fisher Scientific, Catalog #C58125) as follows: 450 μL of crystal violet (1 mg/mL) was added to the plate for a 10 minute incubation at room temperature. After incubation, the plate was washed 3× with distilled water to remove excess dye and allowed to dry overnight. The crystal violet was solubilized using 10% HOAc (500 μL) for 10 minutes at room temperature, while shaking. A volume of 100 μL was then transferred to a 96-well SpectraPlate (Perkin Elmer, Catalog #6005649). Absorbance at 590 nm was measured with a BioTek Synergy Neo. IC50 values were calculated using a four-parameter logistic curve fit using Genedata Screener software.

Test [2] concerns the target T1, PRMT1 (Homo sapiens, UniProt Q99873). The test can be described thus: PRMT1 Enzymatic Assay (LANCE TR-FRET, methylation of histone H4 at Arg3). It counts as biochemical. On the set-up: purchased SignalChem P365-380G. The following applies: PRMT1 1.5 nM, SAM 1 μM, biotinylated histone H4 (1-21) 25 nM; read-out: PRMT-1 IC50. How it is done: In order to measure PRMT1 enzymatic activity the LANCE TR-FRET assay from PerkinElmer was used to follow the methylation of histone H4 at Arg3 using S-adenosyl-L-methionine (SAM) as the methyl group donor.
This enzymatic assay was performed in a 384 well, white, low volume plate (PerkinElmer, Catalog 6008289) with assay buffer consisting of 50 mM Hepes (pH 8) (Teknova, Catalog #H1090), 1 mM TCEP (Sigma, Catalog #C4706), and 0.003% Tween-20 (Thermo, Catalog #85114). Stock solutions of the test compounds were prepared in 100% DMSO (Sigma, Catalog #D2650) and serially diluted 1:3 using 100% DMSO. Compounds were additionally diluted 1:40 in assay buffer, and 2 uL/well were transferred to the assay plate. 4 uL/well (final concentration 1.5 nM) of PRMT1 protein (SignalChem, Catalog #P365-380G) diluted in assay buffer was added to the assay plate followed by a 15 min preincubation at room temperature. 4 uL/well of SAM (Sigma, Catalog #A7007) and biotinylated histone H4 (1-21) (AnaSpec, Catalog #62555) (final concentrations 1 μM and 25 nM, respectively) diluted in assay buffer were then added to the assay plate followed by a 1 hour reaction time. Final concentrations of PRMT1, SAM, and histone H4 (1-21) refer to a […].
Detection of methylated histone H4 (H4R^3me) was achieved by combining LANCE Ultra Europium-anti-H4R^3me antibody (PerkinElmer, Catalog #TRF04-14), LANCE Ultra ULight-anti-streptavidin antibody (PerkinElmer, Catalog #TRF0102), and sinefungin (Sigma, Catalog #S8559) (final concentrations 2 nM, 50 nM, and 100 μM respectively) in 1× LANCE detection buffer (PerkinElmer, Catalog #CR97-100) and adding L/well of the detection solution to the assay plate. Detection reagents were allowed to react for 1 hour at room temperature. Final concentrations in the detection solution refer to a L volume. The europium fluorescence signal and the ULight TR-FRET signal were measured using a BioTek Synergy Neo plate reader: excitation at 330 nm, emission at 620 nm and 665 nm respectively, and the ratio of the two signals (665 nm/620 nm) was used for curve fitting. IC50 values were calculated using a four-parameter logistic curve fit using Genedata Screener software.
A general note: Time-resolved FRET reads energy transfer from a long-lived donor to a nearby acceptor.

The target in test [3] is T1, PRMT1. The test can be described thus: PRMT1 RKO Cellular Target Engagement Assay (In-Cell Western, asymmetric di-methyl arginine). Format: cell-based. The following applies: RKO cells, 48 hr compound incubation; read-out: RKO IC50 (PRMT-1 Target Engagement). How it is done:
RKO cells were routinely maintained in EMEM media (ATCC, Catalog #30-2003) supplemented with 10% fetal bovine serum (Sigma, Catalog #F2442) using a humidified incubator (37° C., 5% CO2, and ambient O2).
In preparation for the In-Cell Western assay, cells were harvested and resuspended in EMEM media supplemented with 10% fetal bovine serum. Cells were seeded onto a 384 well, black, clear bottom, Poly-D-Lysine coated tissue culture plate (Greiner, Catalog #781946) at a density of 1,000 cells/well in a volume of 40 μL. The culture plate was incubated for 24 hr at 37° C. with 5% CO2 and ambient O2. Stock solutions of the test compounds were prepared in 100% DMSO (Sigma, Catalog #D2650) and serially diluted 1:3 using 100% DMSO. Compounds were additionally diluted 1:40 in culture medium, and 10 μL/well was transferred to the tissue culture plate. Following the compound addition the microplate was incubated at 37° C. for 48 hr.
The media was removed, the plate was washed with 1× PBS (Fisher Bioreagents, Catalog #BP399-20), and cells were fixed for 10 min using 30 μL/well of 4% paraformaldehyde (Electron Microscopy Sciences, Catalog #15710). The paraformaldehyde was removed, the plate was again washed with 1× PBS, and cells were permeabilized for 15 min using 30 μL/well of 1× PBS containing 0.5% Triton-X 100 (Sigma, Catalog #1001748095). The permeabilization buffer was removed, the plate was washed with 1× PBST (Boston BioProducts, Catalog #IBB-171X), and 50 μL/well of blocking buffer (LI-COR, Catalog #927-40000) was added followed by a 1 hour incubation at room temperature. The blocking buffer was removed, and 20 μL/well of anti-asymmetric di-methyl arginine antibody (Cell Signaling, Catalog #13522S) diluted 1:1000 in LI-COR blocking buffer was added to the plate and incubated overnight, in the dark at 4° C.
The primary antibody was then removed, and the plate was washed three times with 1× PBST. 20 μL/well of CellTag (LI-COR, Catalog #926-41090) and IRDye 800CW goat anti-rabbit IgG antibody (LI-COR, Catalog #926-32211), each diluted 1:500 in LI-COR blocking buffer supplemented with 0.1% Tween-20 (Thermo Scientific, Catalog #85114), were added to the plate. The plate was then incubated in the dark, at room temperature for 1 hour followed by three washes with 1× PBST and one wash with H2O. The IRDye secondary antibody signal (800 channel) and the CellTag signal (700 channel) were measured using a Licor Odyssey Imager, and the 800 channel signal was then normalized to the 700 channel signal. IC50 values were calculated using a four-parameter logistic curve fit using Genedata Screener software.

The test system of test [4] is DOHH2 cells. The test can be described thus: DOHH2 Long Term Phenotypic Assay (7 days, Cell Titer-Glo viability). Format: cell-based. The following applies: Homo sapiens, DOHH-2, 168 h, Cell Titer-Glo 2.0. On the procedure:
DOHH2 cells were kindly provided by Michael Green (MDACC). The cells were routinely maintained in RPMI-1640 Medium (ATCC, Catalog #30-2001) supplemented with 10% fetal bovine serum (Sigma, Catalog #F2442), 100 units/mL penicillin and 100 μg/mL streptomycin (Gibco, Catalog #15140-122) in a humidified incubator (37° C., 5% CO2). Cells were seeded onto a white, CulturPlate-384 (Perkin Elmer, catalog #6007680) at a density of 250 cells per well in a volume of 50 μL. Stock solutions of the test compounds were prepared in 100% DMSO (Sigma, Catalog #D2650) and serially diluted 1:3 using 100% DMSO. Compounds were additionally diluted 1:33 in culture medium, and 10 μL/well was transferred to the tissue culture plate. Following the compound addition, the plate was incubated at 37° C. and 5% CO2 for 7 days. Cells were then mixed and a 30 μL volume was removed. Viability was assessed by a 30 μL addition of Cell Titer-Glo 2.0 (Promega, catalog #G9243). The plate was then shaken on an orbital shaker at 300 RPM for 10 minutes at room temperature, in the dark. Luminescence was measured using a PerkinElmer Envision™ plate reader. IC50 values were calculated using a four-parameter logistic curve fit using Genedata Screener software.
In general terms: Cellular ATP, detected with luciferase, serves as a proxy for viable cell number.

This note sets out measurements from patent publication US20230416261A1, “ETHANEDIAMINE-HETEROCYCLE DERIVATIVES AS INHIBITORS OF PROTEIN ARGININE METHYLTRANSFERASES” (Board of Regents, The University of Texas System, priority 2021, published 2023).

Usually IC50 stands for the midpoint of a concentration-inhibition curve.

T1 sequence (Q99873 whole entry): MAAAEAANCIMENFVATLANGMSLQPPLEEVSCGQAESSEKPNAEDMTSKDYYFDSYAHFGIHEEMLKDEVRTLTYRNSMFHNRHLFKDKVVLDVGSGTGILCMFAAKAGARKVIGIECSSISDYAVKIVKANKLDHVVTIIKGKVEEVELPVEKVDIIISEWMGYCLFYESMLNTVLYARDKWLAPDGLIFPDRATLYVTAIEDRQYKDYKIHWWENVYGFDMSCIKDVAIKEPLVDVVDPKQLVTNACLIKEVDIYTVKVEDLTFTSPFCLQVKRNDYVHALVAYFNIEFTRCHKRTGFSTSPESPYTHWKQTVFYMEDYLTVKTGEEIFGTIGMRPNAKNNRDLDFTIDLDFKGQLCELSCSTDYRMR

Turning to `CCOCC1(COCC)CCC(c2c(CN(C)CCNC)nn3c2CN(C(=O)CC(F)(F)F)CC3)CC1` [Example 3, 1-(3-(4,4-bis(ethoxymethyl)-cyclohexyl)-2-((methyl(2-(methylamino)ethyl)amino)-methyl)-6,7-dihydropyrazolo-[1,5-a]pyrazin-5(4H)-yl)-3,3,3-trifluoropropan-1-one], the IC50 stood at 428 nM in test [1], 57 nM in test [2] and 153 nM in test [3].

As to `CNCCN(C)Cc1nn2c(c1C1CCC(COC)(COC)CC1)CN(C(=O)CC(F)(F)F)CC2` [Example 7, 1-(3-(4,4-bis(methoxy-methyl)cyclohexyl)-2-((methyl(2-(methylamino)-ethyl)amino)methyl)-6,7-dihydropyrazolo[1,5-a]-pyrazin-5(4H)-yl)-3,3,3-trifluoropropan-1-one], the IC50 in test [1] was found to be 210 nM; in test [2] it was 32 nM; in test [3], 1620 nM.

Take `CNCCN(C)Cc1nn2c(c1C1CCC(COC)(COC)CC1)CN(C(=O)C1COC1)CC2` [Example 9, (3-(4,4-bis(methoxymethyl)-cyclohexyl)-2-((methyl(2-(methylamino)ethyl)amino)-methyl)-6,7-dihydropyrazolo-[1,5-a]pyrazin-5(4H)-yl)-(oxetan-3-yl)methanone]: the IC50 in test [1] came to 1300 nM; in test [2], 65 nM; in test [3], 1110 nM.

As for `COCC1(COC)CCC(c2c(CN(C)CCN)nn3c2CN(C(=O)CC(F)(F)F)CC3)CC1` [Example 10, 1-(2-(((2-aminoethyl)-(methyl)amino)methyl)-3-(4,4-bis(methoxymethyl)-cyclohexyl)-6,7-dihydro-pyrazolo[1,5-a]pyrazin-5(4H)-yl)-3,3,3-trifluoropropan-1-one], the half-inhibitory concentration (IC50) was determined as 649 nM in test [1], 20 nM in test [2] and 695 nM in test [3].

Consider `COCC1(COC)CCC(c2c(CN(C)CCN)nn3c2CN(C(=O)C2COC2)CC3)CC1` [Example 12, (2-(((2-aminoethyl)(methyl)-amino)methyl)-3-(4,4-bis-(methoxymethyl)cyclohexyl)-6,7-dihydropyrazolo[1,5-a]-pyrazin-5(4H)-yl)(oxetan-3-yl)methanone], for which the IC50 was determined as 3860 nM in test [1] and 23 nM in test [2].

With `CNCCN(C)Cc1nn2c(c1C1CCC(COC)(COC)CC1)CN(C(=O)C1(C)CC1)CC2` [Example 17, (3-(4,4-bis(methoxymethyl)-cyclohexyl)-2-((methyl(2-(methylamino)ethyl)amino)-methyl)-6,7-dihydropyrazolo-[1,5-a]pyrazin-5(4H)-yl)(1-methylcyclopropyl)-methanone], the half-inhibitory concentration (IC50) in test [1] amounted to 133 nM; in test [2] it was 56 nM; in test [3], 370 nM.

In the case of `CNCCN(C)Cc1nn2c(c1C1CCC(COC)(COC)CC1)CN(C(=O)C13CC(C#N)(C1)C3)CC2` [Example 22, 3-(3-(4,4-bis(methoxy-methyl)cyclohexyl)-2-((methyl(2-(methylamino)-ethyl)amino)methyl)-4,5,6,7-tetrahydropyrazolo[1,5-a]-pyrazine-5-carbonyl)bicyclo[1.1.1] pentane-1-carbonitrile], the IC50 in test [1] amounted to 447 nM; in test [2] it was 72 nM; in test [3], 1400 nM.

`CNCCN(C)Cc1nn2c(c1C1CCC(COC)(COC)CC1)CN(C(=O)C1CCOCC1)CC2` [Example 31, (3-(4,4-bis(methoxymethyl)-cyclohexyl)-2-((methyl(2-(methylamino)ethyl)amino)-methyl)-6,7-dihydropyrazolo-[1,5-a]pyrazin-5(4H)-yl)-(tetrahydro-2H-pyran-4-yl)-methanone]: the values for the IC50 in test [1], in test [2] and in test [4] were 595 nM, 108 nM and 206 nM, respectively.

Consider `CNCCN(C)Cc1nn2c(c1C1CCC(COC)(COC)CC1)CN(C(=O)C1CCC1(F)F)CC2` (centres unmarked) [Example 81, (3-(4,4-bis(methoxymethyl)-cyclohexyl)-2-((methyl(2-(methylamino)ethyl)amino)-methyl)-6,7-dihydropyrazolo-[1,5-a]pyrazin-5(4H)-yl)(2,2-difluorocyclobutyl)-methanone], for which the IC50 is 133 nM in test [2], 296 nM in test [4] and 367 nM in test [3].
